pIC50: −log10 of the molar value. Converted amounts (≈) assume the structure as drawn. The source made the active and inactive calls. The rule behind the calls is not given here.
Assays:
Acinetobacter baumannii = test: Antimicrobial activity against multidrug-resistant Acinetobacter baumannii ATCC BAA-1605 after 16 hrs by broth microdilution method; type: functional; conditions: ATCC BAA-1605, 16 h
Pseudomonas aeruginosa = test: Antimicrobial activity against Pseudomonas aeruginosa PA14 after 16 hrs by broth microdilution method; type: functional; conditions: PA14, 16 h
Staphylococcus aureus [1] = test: Antimicrobial activity against methicillin-resistant Staphylococcus aureus ATCC 700789 after 16 hrs by broth microdilution method; type: functional; conditions: ATCC 700789, 16 h
Staphylococcus aureus [2] = test: Antibiofilm activity against methicillin-resistant Staphylococcus aureus ATCC 43300 assessed as biofilm dispersal at 20 uM after 24 hrs by crystal violet staining-based microscopy; type: functional, organism-based
Staphylococcus aureus [3] = test: Antimicrobial activity against methicillin-resistant Staphylococcus aureus ATCC 43300 assessed as inhibition of biofilm formation after 24 hrs by crystal violet staining-based microscopy; type: functional, organism-based; conditions: ATCC 43300, 24 h
Staphylococcus aureus [4] = test: Antimicrobial activity against methicillin-resistant Staphylococcus aureus ATCC BAA-44 assessed as inhibition of biofilm formation after 24 hrs by crystal violet staining-based microscopy; type: functional, organism-based; conditions: ATCC BAA-44, 24 h
Staphylococcus aureus [5] = test: Antimicrobial activity against methicillin-resistant Staphylococcus aureus ATCC 33591 after 16 hrs by broth microdilution method; type: functional; conditions: ATCC 33591, 16 h
Staphylococcus aureus [6] = test: Antimicrobial activity against methicillin-resistant Staphylococcus aureus ATCC BAA-1556 after 16 hrs by broth microdilution method; type: functional; conditions: ATCC BAA-1556, 16 h
Staphylococcus aureus [7] = test: Toxicity in methicillin-resistant Staphylococcus aureus ATCC BAA-44 assessed as inhibition of planktonic cell growth at IC50 after 2 to 24 hrs by spectrophotometry; type: organism-based
Staphylococcus aureus [8] = test: Antimicrobial activity against methicillin-resistant Staphylococcus aureus ATCC BAA-811 after 16 hrs by broth microdilution method; type: functional; conditions: ATCC BAA-811, 16 h
Staphylococcus aureus [9] = test: Antimicrobial activity against methicillin-resistant Staphylococcus aureus ATCC BAA-1753 after 16 hrs by broth microdilution method; type: functional; conditions: ATCC BAA-1753, 16 h
Staphylococcus aureus [10] = test: Antimicrobial activity against methicillin-resistant Staphylococcus aureus ATCC 43300 after 16 hrs by broth microdilution method; type: functional; conditions: ATCC 43300, 16 h
Staphylococcus aureus [11] = test: Antimicrobial activity against methicillin-resistant Staphylococcus aureus ATCC BAA-1685 after 16 hrs by broth microdilution method; type: functional; conditions: ATCC BAA-1685, 16 h
Staphylococcus aureus [12] = test: Antimicrobial activity against methicillin-susceptible Staphylococcus aureus ATCC 29213 after 16 hrs by broth microdilution method; type: functional; conditions: ATCC 29213, 16 h
Staphylococcus aureus [13] = test: Antimicrobial activity against methicillin-resistant Staphylococcus aureus ATCC BAA-44 after 16 hrs by broth microdilution method; type: functional; conditions: ATCC BAA-44, 16 h
Staphylococcus aureus [14] = test: Toxicity in methicillin-resistant Staphylococcus aureus ATCC 43300 assessed as inhibition of planktonic cell growth at IC50 after 2 to 24 hrs by spectrophotometry; type: organism-based

| SMILES | MIC (Acinetobacter baumannii) [µg/mL] | MIC (Pseudomonas aeruginosa) [µg/mL] | MIC (Staphylococcus aureus [1]) [µg/mL] | Activity (Staphylococcus aureus [2]) | pIC50 (Staphylococcus aureus [3]) | pIC50 (Staphylococcus aureus [4]) | MIC (Staphylococcus aureus [5]) [µg/mL] | MIC (Staphylococcus aureus [6]) [µg/mL] | Activity (Staphylococcus aureus [7]) | MIC (Staphylococcus aureus [8]) [µg/mL] | MIC (Staphylococcus aureus [9]) [µg/mL] | MIC (Staphylococcus aureus [10]) [µg/mL] | MIC (Staphylococcus aureus [11]) [µg/mL] | MIC (Staphylococcus aureus [12]) [µg/mL] | MIC (Staphylococcus aureus [13]) [µg/mL] | Activity (Staphylococcus aureus [14]) |
| --- | --- | --- | --- | --- | --- | --- | --- | --- | --- | --- | --- | --- | --- | --- | --- | --- |
| CCCCCc1ccc(C(=O)Nc2ccc3c(c2)nc(N)n3CCCCc2c[nH]c3ccccc23)cc1.Cl | > 64 | > 64 | 32 | inactive | 5.24 | 5.10 | 32 | 32 | Toxic | 64 | 64 | 32 | 32 | 64 | 32 | Toxic |
| CCCCCc1ccc(C(=O)Nc2ccc3c(c2)nc(N)n3CCc2c[nH]c3ccccc23)cc1.Cl | > 64 | > 64 | 16 | inactive | 5.43 | 5.36 | 8 | 16 | Toxic | 8 | 16 | 16 | 16 | 16 | 16 | Toxic |
| CCCCCc1ccc(C(=O)Nc2ccc3c(c2)nc(N)n3CCCc2ccccc2)cc1.Cl | > 64 | > 64 | 32 | inactive | 5.33 | 5.28 | 16 | 16 | Non-toxic | 16 | 32 | 16 | 32 | 16 | 32 | Non-toxic |
| CCCCCCCCCCCCn1c(N)nc2cc(NC(=O)c3ccc(CCCCC)cc3)ccc21.Cl | > 64 | > 64 | > 64 | inactive | < 4.70 | < 4.70 | > 64 | > 64 | – | > 64 | > 64 | > 64 | > 64 | > 64 | > 64 | – |
| CCCCCc1ccc(C(=O)Nc2ccc3c(c2)nc(N)n3CCc2ccccn2)cc1.Cl | > 64 | > 64 | 32 | inactive | 5.14 | 5.05 | 32 | 32 | Non-toxic | 32 | 32 | 64 | 64 | 32 | 32 | Non-toxic |
| CCCCCc1ccc(C(=O)Nc2ccc3c(c2)nc(N)n3CCc2ccc(OC)cc2)cc1.Cl | > 64 | > 64 | 16 | inactive | 5.21 | 4.98 | 16 | 8 | Toxic | 16 | 16 | 8 | 8 | 16 | 16 | Toxic |
| CCCCCc1ccc(C(=O)Nc2ccc3c(c2)nc(N)n3CCCCc2ccccc2)cc1.Cl | > 64 | > 64 | 32 | inactive | 5.16 | 4.84 | 16 | 16 | Toxic | 32 | > 64 | 32 | 32 | 32 | 32 | Toxic |
| CCCCCc1ccc(C(=O)Nc2ccc3[nH]c(N)nc3c2)cc1 | 16 (≈ 49.6 µM) | 16 (≈ 49.6 µM) | 8 (≈ 24.8 µM) | – | 4.86 | < 4.70 | 16 (≈ 49.6 µM) | 8 (≈ 24.8 µM) | – | 8 (≈ 24.8 µM) | 8 (≈ 24.8 µM) | 16 (≈ 49.6 µM) | 16 (≈ 49.6 µM) | 16 (≈ 49.6 µM) | 8 (≈ 24.8 µM) | Toxic |
| CCCCCc1ccc(C(=O)Nc2ccc3c(c2)nc(N)n3CCCC)cc1.Cl | > 64 | > 64 | 8 | inactive | 5.35 | 5.30 | 8 | 8 | Non-toxic | 8 | 8 | 8 | 8 | 8 | 8 | Non-toxic |
| CCCCCc1ccc(C(=O)Nc2ccc3c(c2)nc(N)n3CCc2cccc3ccccc23)cc1.Cl | > 64 | > 64 | > 64 | inactive | < 4.70 | < 4.70 | 64 | > 64 | – | > 64 | > 64 | > 64 | > 64 | > 64 | > 64 | – |
| CCCCCc1ccc(C(=O)Nc2ccc3c(c2)nc(N)n3C)cc1.Cl | 64 | 64 | 64 | inactive | < 4.70 | < 4.70 | 32 | 32 | – | 64 | 8 | 16 | 16 | 16 | 32 | – |
| CCCCCc1ccc(C(=O)Nc2ccc3c(c2)nc(N)n3CCc2nc3ccccc3[nH]2)cc1.Cl | > 64 | > 64 | > 64 | inactive | 5.15 | < 4.70 | 64 | 64 | – | > 64 | > 64 | > 64 | > 64 | > 64 | > 64 | Non-toxic |
| CCCCCc1ccc(C(=O)Nc2ccc3c(c2)nc(N)n3C(C)C)cc1.Cl | 32 | > 64 | 16 | inactive | 5.10 | 5.03 | 16 | 8 | Non-toxic | 16 | 16 | 16 | 8 | 16 | 16 | Non-toxic |
| CCCCCCCCn1c(N)nc2cc(NC(=O)c3ccc(CCCCC)cc3)ccc21.Cl | > 64 | > 64 | 64 | inactive | 5.03 | 5.17 | 64 | > 64 | Non-toxic | 32 | 64 | 64 | 64 | 64 | 64 | Non-toxic |
| CCCCCc1ccc(C(=O)Nc2ccc3c(c2)nc(N)n3-c2ccc(CCCCC)cc2)cc1.Cl | > 64 | > 64 | > 64 | inactive | < 4.70 | < 4.70 | > 64 | > 64 | – | > 64 | 64 | > 64 | 64 | 64 | > 64 | – |

Reference: ChEMBL document CHEMBL3217587, “The discovery of N-1 substituted 2-aminobenzimidazoles as zinc-dependent S. aureus biofilm inhibitors” (Medchemcomm, 2012)
